The conditions of series [1]: cited from earlier work.
Series [2] is classed as physicochemical. The protocol: (§1) Specifically, approximately 0.1 g zinc oxide/lactic acid was dissolved in 10 Ml of deionized water via vortexing. […] Specifically, approximately 0.1 g zinc oxide was mixed in 10 Ml sodium lactate solution (containing approximately 0.88 g sodium lactate in 10 Ml deionized water). The mixture was vortexed to dissolve the particles such that no large visible particles remained.

How the values of series [3] were obtained:
To further test solubility of the zinc oxide/lactic acid complexes in a solution comprising lactic acid and water, increasing amounts of lactic acid were added to 0.725 g zinc oxide/lactic acid complexes. Specifically, the following amounts of 88% lactic acid were added to the zinc oxide/lactic acid complexes in 10 Ml deionized water: 0.0273 g, 0.0262 g, 0.0345 g, 0.0575 g, 0.0757 g, 0.1166 g, 0.1562 g, 0.1389 g, 0.1486 g, and 0.2810 g. Approximately 0.3 g zinc oxide/lactic acid complexes were also mixed with 0.0670 g or 0.2517 g 88% lactic acid.

Series [4] in a line: Solubility / dissociation of the complexes in water. Particulars: approximately 0.1 g in 10 Ml deionized water, after standing overnight. Here is the method:
Zinc oxide and lactic acid were mixed in an ethanol solution (reagent grade ethyl alcohol denatured with methanol and isopropyl alcohol) containing approximately 10% water at room temperature with continuous stirring using a magnetic stirrer. […] The crystals were isolated by filtering.
as §1

The values below come from US11725096B2, “Zinc oxide complexes” (MARY KAY INC., priority 2010, dated 2023).

Molecules are shown by their SMILES.

For the compound `[O]=[Zn]` [Zinc oxide, zinc oxide], in series [1], the “solubility in neutral aqueous solutions” value was “nearly insoluble”.
Regarding `CC1[O][Zn]2([OH])([O]C1=O)[O]C(=O)C(C)[O]2` (centres unmarked) [zinc oxide/lactic acid complexes], the “solubility in sodium lactate” value in series [2] is “soluble in sodium lactate”. Also, the “Ph of the mixture in sodium lactate solution” value in series [2] (approximately 0.1 g in 10 Ml sodium lactate solution, overnight) is recorded as “approximately 6”. In addition, in series [3], the “solubility in lactic acid and water (appearance of the mixture)” value is “milky mixture that settles upon standing”. The “Ph of the mixture in water” value in series [4] is “approximately 6”.
